# Test results: EP4603105A1, “PHARMACEUTICAL COMPOSITION CONTAINING CYCLIC COMPOUND HAVING SELECTIVE KRAS INHIBITORY EFFECT AGAINST HRAS AND NRAS” (CHUGAI SEIYAKU KABUSHIKI KAISHA, priority 2022, dated 2024)
# Like-named read-outs stand apart in the source and are kept apart here.
# Legend:
# [1] = molecular target: GDP-bound KRAS wild-type protein (Homo sapiens, UniProt P01116); assay: Binding to KRAS by surface plasmon resonance (SPR), dissociation constant KD
# Outline: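 Running buffer contained 10 µM GDP and 10 mM MgCl2 to keep RAS in the GDP state, with 4% DMSO at pH 7.4. Compounds were flowed at 100 µL/min in 75 s steps of rising concentration over captured biotin-Avi RAS at 30°C. Sensorgrams were fitted 1:1 for KD.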
# [2] = molecular target: GDP-bound NRAS wild-type protein (Homo sapiens, UniProt P01111); assay: Binding to NRAS by surface plasmon resonance (SPR), KD and KD ratio to KRAS
# Outline: (§1)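 Single-cycle kinetics on GDP-loaded biotin-Avi RAS captured to ~100–300 RU; 75 s ascending injections, 100 µL/min, 30°C. HBS pH 7.4 + 10 mM MgCl2/10 µM GDP/4% DMSO. 1:1 fit, KD.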
# [3] = molecular target: HRAS wild-type protein (Homo sapiens, UniProt P01112); assay: Binding to HRAS by surface plasmon resonance (SPR), KD and KD ratio to KRAS
# Outline: as §1
# [4] = system: human lung cancer strain NCI-H441; assay: NCI-H441 cell proliferation inhibitory activity (CellTiter-Glo, 4 days); type: cell-based; settings: read-out: NCl-H441 IC50
# Outline: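 Proliferation was scored by […] measured after the reagent was added to cultures kept at 37°C in 5% carbon dioxide.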
# [5] = ratio of KD for GDP-bound NRAS wild-type protein to KD for KRAS
# [6] = ratio of KD for HRAS wild-type protein to KD for KRAS
# [7] = Single Cycle Kinetics, 1:1 binding model
# [8] = ratio of KD with respect to GDP-bound NRAS wild-type protein to KD with respect to KRAS
# [9] = ratio of KD with respect to HRAS wild-type protein to KD with respect to KRAS
# [10] = 50% proliferation inhibitory concentration, four days
# Sequence of HRAS wild-type protein (P01112 whole entry): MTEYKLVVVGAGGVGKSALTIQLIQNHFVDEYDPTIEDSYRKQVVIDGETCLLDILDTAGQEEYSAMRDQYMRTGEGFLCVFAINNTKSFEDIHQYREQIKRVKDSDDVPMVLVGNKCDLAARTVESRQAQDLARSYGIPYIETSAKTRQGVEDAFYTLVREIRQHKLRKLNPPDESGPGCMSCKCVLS
# Sequence of GDP-bound NRAS wild-type protein (P01111 whole entry): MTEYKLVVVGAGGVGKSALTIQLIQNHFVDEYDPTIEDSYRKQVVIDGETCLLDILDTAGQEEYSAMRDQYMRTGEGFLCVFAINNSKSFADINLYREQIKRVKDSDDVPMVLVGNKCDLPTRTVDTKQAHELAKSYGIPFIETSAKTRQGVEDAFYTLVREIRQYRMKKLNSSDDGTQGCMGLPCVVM
# Sequence of GDP-bound KRAS wild-type protein (P01116 1-188 isoform P01116-2): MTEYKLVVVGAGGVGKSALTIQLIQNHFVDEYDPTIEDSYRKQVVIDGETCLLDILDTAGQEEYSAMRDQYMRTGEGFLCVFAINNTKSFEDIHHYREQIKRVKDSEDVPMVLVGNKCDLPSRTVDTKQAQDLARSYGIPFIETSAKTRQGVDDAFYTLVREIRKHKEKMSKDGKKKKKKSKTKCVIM
Kd ([1]; 1:1 binding model) [nM],"IC50 ([4]; NCI-H441 cells, 4 days) [nM]","Kd [1, 7] [nM]","IC50 [4, 10] [nM]",Kd ([1]; Single Cycle Kinetics) [nM],Structure (SMILES),"NRAS /KRAS [2, 5]","HRAS /KRAS [3, 6]","NRAS /KRAS [2, 8]","HRAS /KRAS [3, 9]"
3.3,210,–,–,–,CCC[C@H]1C(=O)N[C@@H](CC(C)C)C(=O)N(CCOC)CC(=O)N(C)[C@H]2C/C=C\CCN(C2=O)[C@@H](Cc2ccc(C)cc2)C(=O)N(C)CC(=O)N[C@@H](CCc2cc(F)c(C(F)(F)F)c(F)c2)C(=O)N2C[C@H](OCC)C[C@H]2C(=O)NC2(CC(C)(C)C2)C(=O)N(C)[C@@H](C2CCCC2)C(=O)N(C)[C@H](C(=O)N(C)C)CC(=O)N1C [PP2520],A (a compound having 10 or more and less than 20 is denoted as A),A (a compound having 10 or more and less than 20 is denoted as A),–,–
–,–,0.69,118,–,CCO[C@@H]1C[C@H]2C(=O)NC3(CCC3)C(=O)N(C)[C@@H](C3CCCC3)C(=O)N(C)[C@H](C(=O)N(C)C)CC(=O)N(C)[C@@H](Cc3ccccc3C#N)C(=O)N[C@@H]([C@@H](C)CC)C(=O)N(C)CC(=O)N(C)[C@H]3CCCCCN(C3=O)[C@@H](Cc3ccc(C(F)(F)F)cc3)C(=O)N(C)CC(=O)N[C@@H](CCc3cc(F)c(C(F)(F)F)c(F)c3)C(=O)N2C1 [PP1171],–,–,B (a compound having 3 or more and less than 10 is denoted as B),B (a compound having 3 or more and less than 10 is denoted as B)
–,–,0.27,121,–,CC[C@H](C)[C@@H]1NC(=O)[C@H](CC)N(C)C(=O)C[C@@H](C(=O)N(C)C)N(C)C(=O)[C@H](C2CCCC2)N(C)C(=O)C2(CCC2)NC(=O)[C@@H]2CCCN2C(=O)[C@H](CCc2cc(F)c(C(F)(F)F)c(F)c2)NC(=O)CN(C)C(=O)[C@H](CC2CCC(F)(F)CC2)N2CC/C=C\C[C@@H](C2=O)N(C)C(=O)CN(C)C1=O [PP1461],–,–,A (a compound having 10 or more and less than 20 is denoted as A),A (a compound having 10 or more and less than 20 is denoted as A)
0.95,107,–,–,–,CC[C@H](C)[C@@H]1NC(=O)[C@H](COC)N(C)C(=O)C[C@@H](C(=O)N(C)C)N(C)C(=O)[C@H](C2CCCC2)N(C)C(=O)C2(CC(C)(C)C2)NC(=O)[C@@H]2C[C@@H](OC(C)C)CN2C(=O)[C@H](CCc2cc(F)c(C(F)(F)F)c(F)c2)NC(=O)CN(C)C(=O)[C@H](CC2CCCCC2)N2CC/C=C\C[C@@H](C2=O)N(C)C(=O)CN(C2CC2)C1=O [PP2511],A (a compound having 10 or more and less than 20 is denoted as A),A (a compound having 10 or more and less than 20 is denoted as A),–,–
–,45.5,–,–,1.1,CCCN(C)C(=O)[C@@H]1CC(=O)N(C)[C@@H](CC(C)C)C(=O)N[C@@H]([C@@H](C)CC)C(=O)N2CCC[C@H]2C(=O)N(C)[C@H]2C/C=C\CCN(C2=O)[C@@H](Cc2ccc(C(F)(F)F)cc2)C(=O)N(C)CC(=O)N[C@@H](CCc2cc(F)c(C(F)(F)F)c(F)c2)C(=O)N2C[C@H](OCC)C[C@H]2C(=O)N[C@]2(C[C@H](OC)C2)C(=O)N(C)[C@@H](C2CCCC2)C(=O)N1C [PP3355],A (a compound having 10 or more and less than 20 is denoted as A),A (a compound having 10 or more and less than 20 is denoted as A),–,–
–,–,0.29,47.4,–,CCO[C@@H]1C[C@H]2C(=O)NC3(CCC3)C(=O)N(C)[C@@H](C(CC)CC)C(=O)N(C)[C@H](C(=O)N3CCCC3)CC(=O)N(C)[C@@H](C)C(=O)N[C@@H]([C@@H](C)CC)C(=O)N(C)CC(=O)N(C)[C@H]3C/C=C\CCN(C3=O)[C@@H](CC3CCC(F)(F)CC3)C(=O)N(C)CC(=O)N[C@@H](CCc3cc(F)c(C(F)(F)F)c(F)c3)C(=O)N2C1 [PP1436],–,–,AA (a compound having 20 or more is denoted as AA),A (a compound having 10 or more and less than 20 is denoted as A)
0.84,30.5,–,–,–,CCO[C@@H]1C[C@H]2C(=O)NC3(CC(C)(C)C3)C(=O)N(C)[C@@H](C(CC)CC)C(=O)N(C)[C@H](C(=O)N(C)C)CC(=O)N(C)[C@@H](CC3CC3)C(=O)N[C@@H]([C@@H](C)CC)C(=O)N(C)CC(=O)N(C)[C@H]3C/C=C\CCN(C3=O)[C@@H](CC3CCC(F)(F)CC3)C(=O)N(C)CC(=O)N[C@@H](CCc3ccc(C(F)(F)F)c(OC)c3)C(=O)N2C1 [PP2480],A (a compound having 10 or more and less than 20 is denoted as A),A (a compound having 10 or more and less than 20 is denoted as A),–,–
–,–,0.073,3.7,–,CCCC[C@H]1C(=O)N[C@@H]([C@@H](C)CC)C(=O)N(C)CC(=O)N(C)[C@H]2C/C=C\CCN(C2=O)[C@@H](Cc2ccc(C(F)(F)F)cc2)C(=O)N(C)CC(=O)N[C@@H](CCc2cc(F)c(C(F)(F)F)c(F)c2)C(=O)N2C[C@H](OCC)C[C@H]2C(=O)NC2(CCCC2)C(=O)N(C)[C@@H](C2CCCC2)C(=O)N(C)[C@H](C(=O)N(C)C)CC(=O)N1C [PP1397],–,–,A (a compound having 10 or more and less than 20 is denoted as A),A (a compound having 10 or more and less than 20 is denoted as A)

# More lines, now with the values behind:
Structure (SMILES),Kd ([1]; 1:1 binding model) [nM],"IC50 ([4]; NCI-H441 cells, 4 days) [nM]","Kd [1, 7] [nM]","IC50 [4, 10] [nM]",Kd ([1]; Single Cycle Kinetics) [nM],"NRAS /KRAS [2, 5]","HRAS /KRAS [3, 6]","NRAS /KRAS [2, 8]","HRAS /KRAS [3, 9]"
CCO[C@@H]1C[C@H]2C(=O)NC3(CCC3)C(=O)N(C)[C@@H](C(CC)CC)C(=O)N(C)[C@H](C(=O)N(C)C)CC(=O)N(C)[C@@H](C)C(=O)N[C@@H]([C@@H](C)CC)C(=O)N(C)CC(=O)N(C)[C@H]3C/C=C\CCN(C3=O)[C@@H](Cc3ccc(C(F)(F)F)cc3)C(=O)N(C)CC(=O)N[C@@H](CCc3cc(F)c(C(F)(F)F)c(F)c3)C(=O)N2C1 [PP1199],–,–,0.17,39.1,–,–,–,A (a compound having 10 or more and less than 20 is denoted as A),A (a compound having 10 or more and less than 20 is denoted as A)
CCO[C@@H]1C[C@H]2C(=O)NC3(CCC3)C(=O)N(C)[C@@H](C3CCCC3)C(=O)N(C)[C@H](C(=O)N3CCOCC3)CC(=O)N(C)[C@@H](CC)C(=O)N[C@@H]([C@@H](C)CC)C(=O)N(C)CC(=O)N(C)[C@H]3C[C@@H](C)[C@@H](C)CN(C3=O)[C@@H](Cc3ccc(C(F)(F)F)cc3)C(=O)N(C)CC(=O)N[C@@H](CCc3ccc(C(F)(F)F)c(Cl)c3)C(=O)N2C1 [PP1360],–,–,0.055,4.9,–,–,–,A (a compound having 10 or more and less than 20 is denoted as A),B (a compound having 3 or more and less than 10 is denoted as B)
CCO[C@@H]1C[C@H]2C(=O)OC3(CCC3)C(=O)N(C)[C@@H](C3CCCC3)C(=O)N(C)[C@H](C(=O)N(C)C)CC(=O)N(C)[C@@H]([C@H](C)OC)C(=O)N[C@@H]([C@@H](C)CC)C(=O)N3CCC[C@H]3C(=O)N(C)[C@H]3C/C=C\CCN(C3=O)[C@@H](Cc3ccc(C(F)(F)F)cc3)C(=O)N(C)CC(=O)N[C@@H](CCc3ccc(C(F)(F)F)c(OC)c3)C(=O)N2C1 [PP3377],–,11.3,–,–,0.53,A (a compound having 10 or more and less than 20 is denoted as A),A (a compound having 10 or more and less than 20 is denoted as A),–,–
CCCC[C@@H]1NC(=O)C[C@@H](C(=O)N(C)C)N(C)C(=O)[C@H](C2CCCC2)N(C)C(=O)C2(CC(C)(C)C2)NC(=O)[C@@H]2C[C@@H](OCC)CN2C(=O)[C@H](CCc2ccc(C(F)(F)F)c(Cl)c2)NC(=O)CN(C)C(=O)[C@H](Cc2ccc(C(F)(F)F)cc2)N2CC/C=C\C[C@@H](C2=O)N(C)C(=O)CN(C)C(=O)[C@H]([C@@H](C)CC)NC1=O [PP3453],–,19.4,–,–,0.34,A (a compound having 10 or more and less than 20 is denoted as A),A (a compound having 10 or more and less than 20 is denoted as A),–,–
CCO[C@@H]1C[C@H]2C(=O)NC3(CCC3)C(=O)N(C)[C@@H](C3CCCC3)C(=O)N(C)[C@H](C(=O)N3CCOCC3)CC(=O)N(C)[C@@H](CC(C)C)C(=O)N[C@@H]([C@@H](C)CC)C(=O)N3CC[C@H]3C(=O)N(C)[C@H]3CC[C@@H](C)CN(C3=O)[C@@H](Cc3ccc(C(F)(F)F)cc3)C(=O)N(C)CC(=O)N[C@@H](CCc3cc(F)c(C(F)(F)F)c(F)c3)C(=O)N2C1 [PP1373],–,–,0.35,12.2,–,–,–,B (a compound having 3 or more and less than 10 is denoted as B),B (a compound having 3 or more and less than 10 is denoted as B)
CCO[C@@H]1C[C@H]2C(=O)NC3(CCC3)C(=O)N(C)[C@@H](C(CC)CC)C(=O)N(C)[C@H](C(=O)N(C)C)CC(=O)N(C)[C@@H](CC(C)C)C(=O)N[C@@H]([C@@H](C)CC)C(=O)N(C)CC(=O)N(C)[C@H]3C/C=C\CCN(C3=O)[C@@H](Cc3ccc(C(F)(F)F)cc3)C(=O)N(C)CC(=O)N[C@@H](CCc3cc(F)c(C(F)(F)F)c(F)c3)C(=O)N2C1 [PP1201],–,–,0.17,9.7,–,–,–,AA (a compound having 20 or more is denoted as AA),A (a compound having 10 or more and less than 20 is denoted as A)
CCO[C@@H]1C[C@H]2C(=O)NC3(CCCC3)C(=O)N(C)[C@@H](C3CCCC3)C(=O)N(C)[C@H](C(=O)N3CCOCC3)CC(=O)N(C)[C@@H](CC)C(=O)N[C@@H]([C@@H](C)CC)C(=O)N(C)CC(=O)N(C)[C@H]3CC[C@@H](C)CN(C3=O)[C@@H](Cc3ccc(C(F)(F)F)cc3)C(=O)N(C)CC(=O)N[C@@H](CCc3cc(F)c(C(F)(F)F)c(F)c3)C(=O)N2C1 [PP1371],–,–,0.077,5.1,–,–,–,A (a compound having 10 or more and less than 20 is denoted as A),B (a compound having 3 or more and less than 10 is denoted as B)
